The numbers were not newly measured in US20260272857A1, “AN ORALLY RAPIDLY DISINTEGRATING TABLET OF PROPRANOLOL AND ITS PROCESS OF PREPARATION” (NOVUMGEN LIMITED, priority 2023, published 2026), which cites them from elsewhere.

Where a name gives a salt, the structure may show the parent alone.

The conditions of data set [1]: in vivo.
The conditions of data set [2]: high permeability and high solubility drug.

Consider `CC(C)NCC(O)COc1cccc2ccccc12` (stereo not drawn) [propranolol, 1-naphthalen-1-yloxy-3-(propan-2-ylamino) propan-2-ol], for which, in data set [1], the Elimination half-life was 8 h and the Plasma half-life is 3 to 6 h.
Regarding `CC(C)NCC(O)COc1cccc2ccccc12` (stereo not drawn) [Propranolol hydrochloride], the “BCS class in the Biopharmaceutical classification system” value in data set [2] is on record as “BCS class I”.
